These results are taken from US20100178316A1, “EXTENDED RELEASE OF BIOACTIVE MOLECULES FROM SILICONE HYDROGELS” (priority 2007, published 2010).

Assay type in all cases: physicochemical
Data set [1] can be described thus: Packaging test: drug lost from drug-loaded silicone hydrogel to PBS packaging solution. Particulars: 0.1 mm thick GEL1, 1.75 cm diameter, loaded from drug-ethanol solution. On the procedure:
(§1) Commercial contact lenses are typically packaged in about 1-1.5 ml of packaging solution such as PBS. To estimate the effects of packaging on drug release behavior of silicone hydrogel appliances, packaging tests were conducted. A 0.1 mm thick silicone hydrogel was cut into circular pieces of 1.75 cm diameter and a drug was loaded by soaking the silicone hydrogel in a drug-ethanol solution. A 0.1 mm thick piece of GEL1 was loaded with a drug by soaking in drug-ethanol solution of 6.4 mg/ml for timolol and 4.8 mg/ml for DXA. The GEL1 pieces were then blotted with wipes to remove excess drug-ethanol solution from the pieces. The pieces were dried in air overnight before conducting the packaging tests. The silicone hydrogels were then stored in 1 ml of PBS (packaging) solution in a sealed vials for 1.3 or 2 months, and subsequently the appliance was placed in 2 ml of fresh PBS solution. The release of the drug over time is plotted in FIG. 17 and FIG. 18 for timolol and DXA, respectively. For timolol, about 364 μg and 404 μg of drug were lost to the packaging solution for the appliance stored for 1.3 months and 2 months, respectively. The residual drug released into the fresh PBS solution at an average rate of 0.09 mg/(g of gel·day) for 20 days, and then at a lower rate for another 2 months as shown in FIG. 17. […]

Data set [2] is described as follows: Drug release experiments from ethanol-loaded silicone hydrogel pieces soaked in PBS. To be noted: GEL1 to GEL4, 0.1-0.4 mm thick, loaded from 0.64 or 6.4 mg/mL ethanol solution. As for the experimental part: Drugs were individually loaded into individual square pieces of the gels by soaking a gel in 2 or 2.5 mL of a drug-ethanol solution for a period of 3 hours. At the end of three hours the gel was taken out and excess drug-ethanol solution was blotted from the surface of the piece with wipes. The gels were dried in air overnight, and subsequently used for drug release experiments. Results of drug release experiment are given below for three drugs (dexamethasone (DX), dexamethasone acetate (DXA) and timolol) which were individually loaded into different gel pieces.
Drug release experiments were conducted by soaking the square shaped drug containing gel pieces, prepared as described in Example 1, in Dulbecco's phosphate buffered saline (PBS). The volume of the PBS was varied depending on the thickness of the gel to maintain a constant volume ratio of gel to PBS for all samples. The gels of 0.1 mm, 0.2 mm, and 0.4 mm thickness were soaked in 1.5 mL, 3 mL, 6 mL of PBS, respectively.
In like manner to Examples 1, 2 and 3, timolol release experiments were conducted with square pieces of the gels of three different thicknesses for the four different compositions prepared in Example 1 (GEL1 to GEL4), with two different drug loadings by varying the concentration of the drug-ethanol solution used. […]

Data set [3] can be described thus: Drug release into fresh PBS solution after packaging storage. To be noted: 2 ml fresh PBS. As for the experimental part:
as §1

For `CC(C)(C)NC[C@H](O)COc1nsnc1N1CCOCC1` [timolol], in data set [1] (stored in 1 ml PBS for 1.3 months), the “drug lost to the packaging solution” value was “about 364 μg”. Further, the “drug lost to the packaging solution” value in data set [1] (stored in 1 ml PBS for 2 months) is roughly 404 µg. Besides, in data set [2], the “initial burst release (in words)” value is recorded as “initial burst is small in each system” and the “release behaviour from gels into PBS (in words)” value is “all gels release timolol over a long period of time”. In data set [3] (0.1 mm thick GEL1 after packaging, after the first 20 days), the “further release at a lower rate, duration” value turned out to be 2 months. Besides, the “average release rate of residual drug into fresh PBS solution” value in data set [3] (0.1 mm thick GEL1 loaded from 6.4 mg/ml ethanol solution, after packaging, for 20 days) was 0.09 mg/(g of gel·day).
